Patent publication US20230040770A1, “HETEROCYCLIC COMPOUND AND USE THEREOF” (TAKEDA PHARMACEUTICAL COMPANY LIMITED, priority 2019, published 2023)

biological target: T1, human orexin type 2 receptor (Homo sapiens, UniProt O43614); test: Measurement of orexin type 2 receptor agonist activity (calcium indicator fluorescence, CHO cells forcibly expressing human OX2 receptor); type: cell-based; conditions: compound at 3 μM; 0% = DMSO, 100% = orexin A (human) 10 nM
T1 construct: expressed in transfected cells
T1 sequence (O43614 1-444): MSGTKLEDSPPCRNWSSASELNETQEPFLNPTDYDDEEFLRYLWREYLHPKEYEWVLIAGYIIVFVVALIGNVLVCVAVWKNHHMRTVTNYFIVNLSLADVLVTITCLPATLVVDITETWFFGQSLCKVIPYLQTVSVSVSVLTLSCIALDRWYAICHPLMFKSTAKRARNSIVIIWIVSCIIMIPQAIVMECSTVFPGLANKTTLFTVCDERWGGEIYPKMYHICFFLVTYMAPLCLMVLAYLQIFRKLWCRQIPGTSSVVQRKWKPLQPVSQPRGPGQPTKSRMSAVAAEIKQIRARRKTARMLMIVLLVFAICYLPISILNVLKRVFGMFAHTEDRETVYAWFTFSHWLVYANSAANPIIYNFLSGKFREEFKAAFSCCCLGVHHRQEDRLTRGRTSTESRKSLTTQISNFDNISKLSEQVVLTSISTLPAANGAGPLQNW
Text: To obtain a cell clone stably expressing human orexin type 2 receptor, human orexin type 2 receptor cDNA was inserted into pcDNA3.1(+) plasmid vector (Invitrogen), and a plasmid DNA for expression of human orexin type 2 receptor (pcDNA3.1(+)/hOX2R) was cloned. The plasmid DNA was introduced into CHO-dhfr cell by an electroporation method, and human orexin type 2 receptor expressing clone cells were obtained by limiting dilution method by using G418 drug resistance as a selection marker.
CHO cells forcibly expressing human OX2 receptor were seeded in each well of 384 well black transparent bottom plate (BD Falcon) at 7,500 cells/well, and cultured for one day in a 5% CO2 incubator at 37° C. After removal of the medium in the cell plate, assay buffer A containing a calcium indicator (HBSS (Thermo Fisher Scientific), 20 mM HEPES (Thermo Fisher Scientific), 0.1% BSA (Sigma-Aldrich), 2.5 μg/mL Fluo-4 AM (DOJINDO Chemical), 0.08% Pluronic F127 (DOJINDO Chemical), 1.25 mM probenecid (DOJINDO Chemical)) was added at 30 μL/well. The plate was stood for 30 min in a 5% CO2 incubator at 37° C., and further stood at room temperature for 30 min. A test compound prepared by diluting with assay buffer B (HBSS, 20 mM HEPES, 0.1% BSA) was added at 10 μL/well, and the fluorescence value was measured by FDSSμCELL (Hamamatsu Photonics K.K.) every one sec for 1 min, and thereafter every two sec for […]. The activity (%) of the test compound was calculated assuming that variation in the fluorescence value when DMSO was added instead of the test compound was 0%, and variation in the fluorescence value when orexin A (human) (PEPTIDE INSTITUTE, INC.) was added at the final concentration of 10 nM was 100%.

SMILES	OX2R agonist activity (3 μM, %)
CS(=O)(=O)N[C@@H]1[C@H](Cc2csc(-c3cc(F)cc(F)c3)n2)N(C(=O)C2(O)CCC2)CC1(F)F (racemic) [Example 136, rac-N-[(2S,3R)-2-{[2-(3,5-difluorophenyl)-1,3-thiazol-4-yl]methyl}-4,4-difluoro-1-(1-hydroxycyclobutane-1-carbonyl)pyrrolidin-3-yl]methanesulfonamide]	87%
CC(C)(O)C(=O)N1CC(F)(F)[C@H](NS(C)(=O)=O)[C@@H]1Cc1cccc(-c2ccccc2)c1F [Example 4, N-[(2S,3R)-4,4-difluoro-2-[(2-fluoro[1,1′-biphenyl]-3-yl)methyl]-1-(2-hydroxy-2-methylpropanoyl)pyrrolidin-3-yl]methanesulfonamide]	101%
CC(C)(O)C(=O)N1CC(F)(F)[C@H](NS(C)(=O)=O)[C@@H]1Cc1cccc(-c2cccc(F)c2)c1F [Example 7, N-[(2S,3R)-2-[(2,3′-difluoro[1,1′-biphenyl]-3-yl)methyl]-4,4-difluoro-1-(2-hydroxy-2-methylpropanoyl)pyrrolidin-3-yl]methanesulfonamide]	101%
CCS(=O)(=O)N[C@@H]1[C@H](Cc2cccc(-c3cccc(F)c3)c2F)N(C(=O)C(C)(C)O)CC1(F)F [Example 8, N-[(2S,3R)-2-[(2,3′-difluoro[1,1′-biphenyl]-3-yl)methyl]-4,4-difluoro-1-(2-hydroxy-2-methylpropanoyl)pyrrolidin-3-yl]ethanesulfonamide]	99%
CS(=O)(=O)N[C@@H]1[C@H](Cc2cccc(-c3cccc(F)c3)c2F)N(C(=O)N2CCC2)CC1(F)F [Example 11, N-{(2S,3R)-1-(azetidine-1-carbonyl)-2-[(2,3′-difluoro[1,1′-biphenyl]-3-yl)methyl]-4,4-difluoropyrrolidin-3-yl}methanesulfonamide]	85%
CS(=O)(=O)N[C@@H]1[C@H](Cc2cccc(-c3cccc(F)c3)c2F)N(C(=O)C2(O)CCC2)CC1(F)F [Example 13, N-[(2S,3R)-2-[(2,3′-difluoro[1,1′-biphenyl]-3-yl)methyl]-4,4-difluoro-1-(1-hydroxycyclobutane-1-carbonyl)pyrrolidin-3-yl]methanesulfonamide]	93%
CS(=O)(=O)N[C@@H]1[C@H](Cc2cccc(-c3cccc(F)c3)c2)N(C(=O)C23CC(C2)C3)CC1(F)F [Example 21, N-{(2S,3R)-1-(bicyclo[1.1.1]pentane-1-carbonyl)-4,4-difluoro-2-[(3′-fluoro[1,1′-biphenyl]-3-yl)methyl]pyrrolidin-3-yl}methanesulfonamide]	102%
CCS(=O)(=O)N[C@@H]1[C@H](Cc2cccc(-c3ccccc3)c2F)N(C(=O)C2(O)CCC2)CC1(F)F [Example 23, N-[(2S,3R)-4,4-difluoro-2-[(2-fluoro[1,1′-biphenyl]-3-yl)methyl]-1-(1-hydroxycyclobutane-1-carbonyl)pyrrolidin-3-yl]ethanesulfonamide]	100%
Cc1cccc(-c2cccc(C[C@H]3[C@@H](NS(C)(=O)=O)C(F)(F)CN3C(=O)C(C)(C)O)c2F)c1 [Example 25, N-[(2S,3R)-4,4-difluoro-2-[(2-fluoro-3′-methyl[1,1′-biphenyl]-3-yl)methyl]-1-(2-hydroxy-2-methylpropanoyl)pyrrolidin-3-yl]methanesulfonamide]	108%
CS(=O)(=O)N[C@@H]1[C@H](Cc2cccc(-c3cccc(F)c3)c2)N(C(=O)[C@H]2CCCO2)CC1(F)F [Example 26, N-{(2S,3R)-4,4-difluoro-2-[(3′-fluoro[1,1′-biphenyl]-3-yl)methyl]-1-[(2R)-oxolane-2-carbonyl]pyrrolidin-3-yl}methanesulfonamide]	100%
CC(C)C(=O)N1CC(F)(F)[C@H](NS(C)(=O)=O)[C@@H]1Cc1cccc(-c2cc(F)cc(F)c2)c1 [Example 35, N-[(2S,3R)-2-[(3′,5′-difluoro[1,1′-biphenyl]-3-yl)methyl]-4,4-difluoro-1-(2-methylpropanoyl)pyrrolidin-3-yl]methanesulfonamide]	96%
CC(C)(O)C(=O)N1CC(F)(F)[C@H](NS(C)(=O)=O)[C@@H]1Cc1cccc(-c2cccc(Cl)c2)c1F [Example 44, N-[(2S,3R)-2-[(3′-chloro-2-fluoro[1,1′-biphenyl]-3-yl)methyl]-4,4-difluoro-1-(2-hydroxy-2-methylpropanoyl)pyrrolidin-3-yl]methanesulfonamide]	98%
CCS(=O)(=O)N[C@@H]1[C@H](Cc2cccc(-c3ccccc3)c2F)N(C(=O)C2CCO2)CC1(F)F (stereo partly drawn) [Example 45, N-[(2S,3R)-4,4-difluoro-2-[(2-fluoro[1,1′-biphenyl]-3-yl)methyl]-1-(oxetane-2-carbonyl)pyrrolidin-3-yl]ethanesulfonamide]	98%
CCS(=O)(=O)N[C@@H]1[C@H](Cc2cccc(-c3ccccc3)c2F)N(C(=O)C2CCO2)CC1(F)F (stereo partly drawn) [Example 46, N-[(2S,3R)-4,4-difluoro-2-[(2-fluoro[1,1′-biphenyl]-3-yl)methyl]-1-(oxetane-2-carbonyl)pyrrolidin-3-yl]ethanesulfonamide]	102%
CCS(=O)(=O)N[C@@H]1[C@H](Cc2cccc(-c3ccccc3)c2)N(C(=O)C2CCO2)CC1(F)F (stereo partly drawn) [Example 50, N-[(2S,3R)-2-[([1,1′-biphenyl]-3-yl)methyl]-4,4-difluoro-1-(oxetane-2-carbonyl)pyrrolidin-3-yl]ethanesulfonamide]	99%
CCS(=O)(=O)N[C@@H]1[C@H](Cc2cccc(-c3ccccc3)c2)N(C(=O)C2CCO2)CC1(F)F (stereo partly drawn) [Example 51, N-[(2S,3R)-2-[([1,1′-biphenyl]-3-yl)methyl]-4,4-difluoro-1-(oxetane-2-carbonyl)pyrrolidin-3-yl]ethanesulfonamide]	99%
CCS(=O)(=O)N[C@@H]1[C@H](Cc2cccc(-c3cccc(F)c3)c2)N(C(=O)C2CCO2)CC1(F)F (stereo partly drawn) [Example 52, N-[(2S,3R)-4,4-difluoro-2-[(3′-fluoro[1,1′-biphenyl]-3-yl)methyl]-1-(oxetane-2-carbonyl)pyrrolidin-3-yl]ethanesulfonamide]	100%
CCS(=O)(=O)N[C@@H]1[C@H](Cc2cccc(-c3cccc(C)c3F)c2F)N(C(=O)C(C)(C)O)CC1(F)F [Example 65, N-[(2S,3R)-2-[(2,2′-difluoro-3′-methyl[1,1′-biphenyl]-3-yl)methyl]-4,4-difluoro-1-(2-hydroxy-2-methylpropanoyl)pyrrolidin-3-yl]ethanesulfonamide]	100%
CCS(=O)(=O)N[C@@H]1[C@H](Cc2cccc(-c3cccc(Cl)c3)c2F)N(C(=O)C(C)(C)O)CC1(F)F [Example 68, N-[(2S,3R)-2-[(3′-chloro-2-fluoro[1,1′-biphenyl]-3-yl)methyl]-4,4-difluoro-1-(2-hydroxy-2-methylpropanoyl)pyrrolidin-3-yl]ethanesulfonamide]	106%
CS(=O)(=O)N[C@@H]1[C@H](Cc2cccc(-c3ccccc3)c2F)N(C(=O)[C@H]2CCCO2)CC1(F)F [Example 73, N-{(2S,3R)-4,4-difluoro-2-[(2-fluoro[1,1′-biphenyl]-3-yl)methyl]-1-[(2R)-oxolane-2-carbonyl]pyrrolidin-3-yl}methanesulfonamide]	104%
CS(=O)(=O)N[C@@H]1[C@H](Cc2cccc(-c3ccccc3)c2F)N(C(=O)C2(O)CCC2)CC1(F)F [Example 76, N-[(2S,3R)-4,4-difluoro-2-[(2-fluoro[1,1′-biphenyl]-3-yl)methyl]-1-(1-hydroxycyclobutane-1-carbonyl)pyrrolidin-3-yl]methanesulfonamide]	98%
CC(C)C(=O)N1CC(F)(F)[C@H](NS(C)(=O)=O)[C@@H]1Cc1cccc(-c2ccccc2)c1F [Example 77, N-[(2S,3R)-4,4-difluoro-2-[(2-fluoro[1,1′-biphenyl]-3-yl)methyl]-1-(2-methylpropanoyl)pyrrolidin-3-yl]methanesulfonamide]	95%
